Key:
[1] = target: CHO-KCNQ1/minK (Homo sapiens, UniProt P15382+P51787); conditions: read-out: Estimated IC50 (reference compound); antagonist mode; Qube APC (1 conc.)
[2] = target: HEK-Kv4.3/KChIP2 (Homo sapiens, UniProt Q9NS61+Q9UK17); assay: cell-based
[3] = target: T1, HEK-Nav1.5 (Late, Antagonist) (Homo sapiens, UniProt Q14524); assay type: cell-based; conditions: antagonist mode; Qube APC (1 conc.); late current, 50nM ATXII; read-out: Estimated IC50 (reference compound)
T1 construct: CYL7004QB2DR (late); host or cells: HEK

[4] = target: T2, HEK-Kir2.1 (Homo sapiens, UniProt P63252); assay type: cell-based; conditions: read-out: Estimated IC50 (reference compound)
T2 construct: host or cells: HEK

[5] = tested on: leukemia and peripheral blood monocyte cell line; set-up: method as in PMID 16137634; conditions: 5 and 10 µM; ref [51]; cited from earlier work
[6] = tested on: cancer cell lines; conditions: ref Saar and colleagues; cited from earlier work

Sequence of HEK-Kv4.3/KChIP2 (Q9UK17 whole entry): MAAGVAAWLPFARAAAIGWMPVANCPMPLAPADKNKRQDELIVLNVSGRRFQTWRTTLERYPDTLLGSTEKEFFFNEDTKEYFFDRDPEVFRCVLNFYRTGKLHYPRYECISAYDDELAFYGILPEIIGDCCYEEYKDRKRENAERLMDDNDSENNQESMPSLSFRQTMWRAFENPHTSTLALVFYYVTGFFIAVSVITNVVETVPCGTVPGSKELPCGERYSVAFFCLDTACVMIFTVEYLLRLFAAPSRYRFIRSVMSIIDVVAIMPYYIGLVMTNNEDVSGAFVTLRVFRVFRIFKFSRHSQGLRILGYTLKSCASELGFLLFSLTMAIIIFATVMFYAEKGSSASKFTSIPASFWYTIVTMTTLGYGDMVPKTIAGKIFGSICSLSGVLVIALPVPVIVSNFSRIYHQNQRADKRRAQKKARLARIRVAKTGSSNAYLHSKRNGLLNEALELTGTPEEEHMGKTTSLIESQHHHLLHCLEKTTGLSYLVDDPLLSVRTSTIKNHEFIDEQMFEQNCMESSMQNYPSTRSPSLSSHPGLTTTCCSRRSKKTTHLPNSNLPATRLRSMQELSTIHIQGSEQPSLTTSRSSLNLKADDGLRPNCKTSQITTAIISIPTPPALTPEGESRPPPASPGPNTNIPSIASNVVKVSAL
Sequence of HEK-Kv4.3/KChIP2 (Q9NS61 whole entry partner): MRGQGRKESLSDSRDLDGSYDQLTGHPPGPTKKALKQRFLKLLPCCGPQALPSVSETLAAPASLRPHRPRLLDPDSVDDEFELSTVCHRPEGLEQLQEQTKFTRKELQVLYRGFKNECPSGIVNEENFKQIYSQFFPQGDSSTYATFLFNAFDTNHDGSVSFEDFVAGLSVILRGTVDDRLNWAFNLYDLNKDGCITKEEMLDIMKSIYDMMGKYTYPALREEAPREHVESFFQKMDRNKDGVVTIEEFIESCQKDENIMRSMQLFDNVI
T1 sequence (Q14524 whole entry): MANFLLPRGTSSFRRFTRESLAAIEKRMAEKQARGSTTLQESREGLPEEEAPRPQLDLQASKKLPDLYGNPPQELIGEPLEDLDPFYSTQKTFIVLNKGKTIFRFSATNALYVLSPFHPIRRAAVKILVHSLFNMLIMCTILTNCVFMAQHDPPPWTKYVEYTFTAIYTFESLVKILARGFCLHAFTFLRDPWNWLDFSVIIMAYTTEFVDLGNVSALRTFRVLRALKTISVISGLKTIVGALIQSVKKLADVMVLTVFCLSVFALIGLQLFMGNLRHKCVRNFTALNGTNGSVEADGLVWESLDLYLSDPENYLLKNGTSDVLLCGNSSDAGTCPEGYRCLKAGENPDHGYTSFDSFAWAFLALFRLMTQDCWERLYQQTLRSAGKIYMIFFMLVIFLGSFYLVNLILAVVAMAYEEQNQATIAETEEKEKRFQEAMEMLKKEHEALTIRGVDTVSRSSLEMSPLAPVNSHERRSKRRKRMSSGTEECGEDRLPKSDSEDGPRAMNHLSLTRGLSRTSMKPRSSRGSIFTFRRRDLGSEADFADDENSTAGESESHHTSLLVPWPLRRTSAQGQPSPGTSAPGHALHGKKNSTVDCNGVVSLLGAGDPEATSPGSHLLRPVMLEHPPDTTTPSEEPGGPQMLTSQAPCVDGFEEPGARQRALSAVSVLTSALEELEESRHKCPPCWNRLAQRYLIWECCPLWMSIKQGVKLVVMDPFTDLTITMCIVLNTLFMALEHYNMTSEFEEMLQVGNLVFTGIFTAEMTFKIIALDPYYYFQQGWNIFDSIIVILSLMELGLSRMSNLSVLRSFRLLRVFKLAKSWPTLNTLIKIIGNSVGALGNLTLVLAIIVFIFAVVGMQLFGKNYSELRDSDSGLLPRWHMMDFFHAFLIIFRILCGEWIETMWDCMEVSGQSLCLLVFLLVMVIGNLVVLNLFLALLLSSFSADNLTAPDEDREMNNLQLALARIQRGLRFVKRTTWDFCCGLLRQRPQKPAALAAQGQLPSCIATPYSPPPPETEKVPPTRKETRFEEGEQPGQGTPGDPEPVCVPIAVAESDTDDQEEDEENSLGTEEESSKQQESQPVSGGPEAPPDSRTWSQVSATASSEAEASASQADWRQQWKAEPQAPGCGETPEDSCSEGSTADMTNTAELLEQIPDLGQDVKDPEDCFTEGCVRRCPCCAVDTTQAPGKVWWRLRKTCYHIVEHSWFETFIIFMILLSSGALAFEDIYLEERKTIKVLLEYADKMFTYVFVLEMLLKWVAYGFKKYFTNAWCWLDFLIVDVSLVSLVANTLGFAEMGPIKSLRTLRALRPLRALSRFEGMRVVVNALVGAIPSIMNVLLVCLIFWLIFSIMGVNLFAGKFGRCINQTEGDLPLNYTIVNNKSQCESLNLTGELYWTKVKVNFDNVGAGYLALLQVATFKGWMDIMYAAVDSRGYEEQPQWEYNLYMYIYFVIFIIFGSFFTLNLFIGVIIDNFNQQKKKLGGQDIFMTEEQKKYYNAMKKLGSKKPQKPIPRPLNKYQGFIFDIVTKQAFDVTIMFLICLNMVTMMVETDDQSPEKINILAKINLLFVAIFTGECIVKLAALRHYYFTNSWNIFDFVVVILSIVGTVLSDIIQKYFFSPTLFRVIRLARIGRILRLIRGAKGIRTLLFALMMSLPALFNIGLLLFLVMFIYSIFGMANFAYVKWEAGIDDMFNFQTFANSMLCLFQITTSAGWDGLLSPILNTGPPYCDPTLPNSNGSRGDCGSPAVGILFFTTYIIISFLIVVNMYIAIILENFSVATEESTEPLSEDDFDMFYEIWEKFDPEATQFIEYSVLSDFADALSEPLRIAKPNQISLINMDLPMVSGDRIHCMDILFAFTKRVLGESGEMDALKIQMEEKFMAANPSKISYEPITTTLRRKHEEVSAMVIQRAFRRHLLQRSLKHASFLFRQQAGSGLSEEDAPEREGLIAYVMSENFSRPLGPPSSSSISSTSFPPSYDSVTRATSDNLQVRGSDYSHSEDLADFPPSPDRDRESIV
T2 sequence (P63252 whole entry): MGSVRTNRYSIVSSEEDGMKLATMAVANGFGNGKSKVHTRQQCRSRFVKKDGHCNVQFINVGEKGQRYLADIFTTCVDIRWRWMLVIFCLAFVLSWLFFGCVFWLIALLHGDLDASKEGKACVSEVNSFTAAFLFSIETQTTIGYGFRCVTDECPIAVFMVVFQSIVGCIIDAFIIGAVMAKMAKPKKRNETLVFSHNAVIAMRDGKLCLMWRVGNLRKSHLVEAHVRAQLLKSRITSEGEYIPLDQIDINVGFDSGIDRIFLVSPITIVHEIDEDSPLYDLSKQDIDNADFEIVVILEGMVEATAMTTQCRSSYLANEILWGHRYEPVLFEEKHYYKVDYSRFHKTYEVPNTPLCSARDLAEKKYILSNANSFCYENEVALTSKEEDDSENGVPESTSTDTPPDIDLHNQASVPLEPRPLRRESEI

Molecule: CCS(=O)(=O)N(C)[C@H]1c2cc(C#N)ccc2OC(C)(C)[C@@H]1O (racemic) [Chromanol 293B, reference compound]
- IC50 [1]: 21.5 µM

Molecule: O=C(NCC1CCCCN1)c1cc(OCC(F)(F)F)ccc1OCC(F)(F)F (stereo not shown) [Flecainide]
- IC50 [2]: 12.5 µM

Molecule: COc1ccccc1OCC(O)CN1CCN(CC(=O)Nc2c(C)cccc2C)CC1 (stereo not shown) [Ranolazine, reference compound]
- IC50 [3]: 72.5 µM

Molecule: [Ba+2].[Cl-].[Cl-] [Barium Chloride, reference compound]
- IC50 [4]: 17.7 µM

Molecule: transportan 10
- cytokine release [5]: no increase in cytokine levels
- membrane leakage of lactate dehydrogenase [6]: significant leakage

Molecule: pVEC: well-characterized, non-cell-specific CPP (TLLIILRRRIRKQAHAHS; UniProt P55284 615-632, looked up, fragment)
- membrane leakage of lactate dehydrogenase [6]: minimal membrane leakage of lactate dehydrogenase

Reference: paper PMC10818749, “Toxicity Studies of Cardiac-Targeting Peptide Reveal a Robust Safety Profile” (Pharmaceutics, 2024)
